Measurements from ChEMBL document CHEMBL3507680, “University of Dundee, Gates Library screen for HepG2 cell viability”.

Assay: Human HepG2 cell viability assay in 384 well format
Type: toxicity, cell-based
Parameters: dose 125 nL, time 70.5 hour; concentration not given beside the values
Settings: HepG2 cells, read-out: Inhibition

| Structure (SMILES) | cytotoxicity at 70.5 h [%] |
| --- | --- |
| CC(C)C(=O)N1CCC(c2nc3ccccn3c2NC(C)(C)C)CC1 | -10.5 |
| CC(C)(C)Nc1c(C2CCN(C(=O)C(C)(C)C)CC2)nc2ccccn12 | -4.87 |
| CCCC1c2cccn2CCN1C(=O)Cn1cnc2sc(C)cc2c1=O (centres undefined) | -12.3 |
| Cc1nc(O)cc([C@@H]2CN(S(=O)(=O)N(C)C)C[C@H]2c2ccccc2F)n1 | -8.96 |
| Cc1nc(O)cc([C@@H]2CN(C(=O)C3CC3)C[C@H]2c2ccccc2F)n1 | -2.23 |
| CCS(=O)(=O)N1C[C@@H](c2cc(O)nc(C)n2)[C@H](c2ccccc2F)C1 | 13.7 |
| CCC1CCCCN1C(=O)Cn1nc(-c2ccc(C)s2)cc(N)c1=O (centres undefined) | -2.23 |
| O=C(NCCc1cc2nc(-c3ccncc3)ccn2n1)C1CCOCC1 | -5.82 |
| Cc1cc(-c2cc(N)c(=O)n(CC(=O)NC3CCCC3)n2)c(C)o1 | -1.96 |
| Cc1cc(-c2cc(N)c(=O)n(CC(=O)N3CCCC(C)C3)n2)c(C)o1 (centres undefined) | -9.35 |
| CN1C[C@@H](C(=O)NC2CCCC2)[C@@]2(COc3ccc(F)cc3C2=O)C1 | -6.62 |
| CN1CCN(C(=O)[C@@H]2CN(C)C[C@]23COc2ccc(F)cc2C3=O)CC1 | 28.4 |
| Cn1nccc1C(=O)NCCN1CCC(O)(c2ccc(F)cc2)CC1 | 7.28 |
| O=C(Cn1cc(Cl)cn1)NCCN1CCC(O)(c2ccc(F)cc2)CC1 | 5.27 |
| CN(c1cccnn1)[C@@H]1CC[C@@H]2CN(Cc3ccccc3C(=O)O)C[C@@H]21 | -6.92 |
| CC1(C)O[C@@](C)([C@H]2CC3(CCN(c4cnccn4)CC3)CO2)CC[C@@H]1O | 1.78 |
| CN(C)Cc1cnc(C2CCN(C(=O)c3ccc(F)cc3)C2)[nH]1 (centres undefined) | -6.91 |
| CCCC1c2cccn2CCN1S(=O)(=O)N1CCOCC1 (centres undefined) | -4.73 |
| CC(=O)N1CCOC(CCc2cc(-c3c(C)noc3C)ncn2)C1 (centres undefined) | -0.21 |
| COc1cc(CCC(=O)N2CCC(c3cnccn3)CC2)on1 | -1.25 |
| CCOCC(=O)N1C[C@@H](O)[C@H](N2CCN(c3ccccc3)CC2)C1 | -3.95 |
| Nc1nccc(C2CN(Cc3ccc(-c4ccccc4C(=O)O)o3)C2)n1 | 2.9 |

| Structure (SMILES) | cytotoxicity at 70.5 h [%] |
| --- | --- |
| CN(c1cccnn1)[C@@H]1CC[C@@H]2CN(Cc3cccc(C(=O)O)c3)C[C@@H]21 | -6.81 |
| CC1(C(N)=O)CN(CC2CCC2)CCO1 (centres undefined) | -2.2 |
| Cc1nn(C)c(C)c1-c1ccc(=O)n(C(C)C(=O)NC(C)(C)C)n1 (centres undefined) | 3.31 |
| Cn1ccnc1C(O)c1ccccc1N1CCN(Cc2cccs2)CC1 (centres undefined) | -0.023 |
| CCc1cc(O)n2nc(C3CCN(C(=O)c4ccccn4)CC3)cc2n1 | -0.453 |
| Cc1ncc(C(=O)N2CC(C(=O)N3CCCCCC3)C2)c(C)n1 | -4.02 |
| CCOc1cc([C@@H]2N[C@H](c3nccs3)Cc3ccsc32)ccc1OC | -3 |
| CCC1CCCCN1C(=O)Cn1nc(-c2cc(C)oc2C)cc(N)c1=O (centres undefined) | -3.58 |
| CC(C)NC(=O)[C@@H]1CN(C(=O)C2CC2)C[C@]12Cc1ccccc1C(=O)N2 | -3.78 |
| CC(=O)N1CCOCC(Cc2ccc3c(ccn3C)c2)C1 (centres undefined) | -0.747 |
| Cc1noc(C)c1-c1cc(CCC2CN(C(=O)CN)CCO2)ncn1 (centres undefined) | -2.94 |
| Cc1cc2ncc(CN(C)C)c(C3CCN(C)CC3)n2n1 | 13.7 |
| COC(=O)c1cccc(C2CNCCN2C(C)=O)c1 (centres undefined) | 21.6 |
| CC(=O)N1CCC(c2c(CN(C)C)cnc3cc(C)nn23)CC1 | 15.7 |
| Nc1cc(-c2c[nH]nc2C2CCCN2S(=O)(=O)c2ccccc2)ccn1 (centres undefined) | -2.78 |
| CN1CCCC(c2nnc3n2CCN(S(=O)(=O)c2ccccc2Cl)C3)C1 (centres undefined) | -9.93 |
| Nc1ncnc2nc(C3CCN(C(=O)Cc4ccc(F)cc4)C3)ccc12 (centres undefined) | -9.46 |
| CCC(=O)N1CCc2c(O)nc(C3CCCCN3C(=O)C3CC3)nc2C1 (centres undefined) | -3.59 |
| O=C1NC2(CCc3ccccc31)CCN(C(=O)c1cccnc1)C2 (centres undefined) | -13 |
| CCC(=O)N1CCCCC1c1nc(O)c2c(n1)CN(C(=O)C1CC1)CC2 (centres undefined) | -7.02 |
| CCC(=O)N1CCCCC1c1nc(O)c2c(n1)CN(S(=O)(=O)CC)CC2 (centres undefined) | -13.9 |
| Cc1c[nH]nc1C1CN(Cc2cnn(-c3ccccc3C(=O)O)c2)C1 | -6.87 |

| Structure (SMILES) | cytotoxicity at 70.5 h [%] |
| --- | --- |
| CCCn1cc(Cl)c(C(=O)N2C[C@@H](O)[C@H](NC(C)=O)C2)n1 | -8.89 |
| CNc1cncc(C2CCCN2Cc2ccnc(N3CCCC3)n2)n1 (centres undefined) | 16.1 |
| O=S(=O)(c1cccs1)N1CCCCC1c1ccn[nH]1 (centres undefined) | -2.26 |
| Cc1c[nH]nc1C1CCCCN1C(=O)CC1(O)CCCCC1 (centres undefined) | -8.79 |
| Cc1ncsc1CN1C[C@@H](O)[C@](O)(CNC(=O)c2ccccn2)C1 | -10.6 |
| COc1ccc(CN2C[C@@H](O)[C@](O)(CNC(=O)c3ccccn3)C2)cc1 | -7.06 |
| CC(=O)N1C[C@@H](c2ccsc2)[C@@H]2CN(Cc3ccccc3C)CC[C@@H]21 | 18.9 |
| COc1cccc(CN2CCC(c3nnc(-c4cnc(C)cn4)o3)C2)c1 (centres undefined) | -13.5 |
| Cc1nc(Nc2nnc(C)s2)cc(C2CCCN2C)n1 (centres undefined) | 7.92 |
| CCN1CCC(c2cncc(N(C)C)n2)CC1 | 1.63 |
| CC(=O)N1CC(Cc2nccc3ccn(C)c23)C1 | -5.15 |
| c1ncc(Nc2nccc(C3CCCCN3CC3CCCCC3)n2)cn1 (centres undefined) | -2.27 |
| O=C(C1CC1)N1CCC(c2nc(O)c3c(n2)CCN(C2CCCC2)C3)C1 (centres undefined) | -6.87 |
| CC(=O)N1CCC(c2ccnc(Nc3cnccn3)n2)C1 (centres undefined) | -22.3 |
| CCC(=O)N1CCC(Cc2ccccc2-c2ccccc2)(C(N)=O)C1 (centres undefined) | -20.3 |
| Cc1nc(CCC(=O)NC2CCC2)cc(C2CCNCC2)n1 | 21.9 |
| Cc1noc(C)c1-c1cccc(CC2CCN(C(=O)c3cc[nH]n3)C2)n1 (centres undefined) | -18 |
| CC(=O)N1CCOC(c2cc(N3CC(O)C3)nc(C)n2)C1 (centres undefined) | -16.5 |
| Cc1cc(N(C)C)nc(C2(C)CCCN2C(=O)c2cnccn2)n1 (centres undefined) | -21.4 |
| CC(=O)Nc1nc(C2CCN(C(=O)c3cccnc3)CC2)cs1 | -15.5 |
| CN1CCN(Cc2cscn2)CC(C(=O)N(C)C)C1 (centres undefined) | 15.4 |
| CC(=O)N1CCC(c2cncc(Oc3ccccc3)n2)CC1 | -2.89 |

| Structure (SMILES) | cytotoxicity at 70.5 h [%] |
| --- | --- |
| CCn1cc(CN2C[C@@H]3CCCN3C[C@@H]2CCSC)c(C)n1 | -22.6 |
| CC(=O)N1CCCC1c1nccc(C)n1 (centres undefined) | -9.48 |
| Cc1cnc(N)c(C(=O)C2CCN(C(=O)c3ccccc3F)CC2)c1 | -11.6 |
| C=C(C)C(=O)N1CCC(C(=O)c2cc(C)cnc2N)CC1 | 14.9 |
| Cc1nc(C2CCCN2C(=O)c2ccccc2)ncc1C(N)=O (centres undefined) | -7.95 |
| CN(Cc1ccc(F)cc1)CC1(O)CCN(C(=O)c2cccn2C)C1 (centres undefined) | -10.7 |
| Cc1ccccc1C(=O)N1CCC(n2nnc3cc(F)ccc32)CC1 | -12.1 |
| Cc1cc(-c2cnc(N3CCNC(=O)C3)nc2-c2cccnc2C)on1 | -15.9 |
| COc1ccc(C2Nc3cc(Cl)ccc3C3=NCCN32)cc1OC (centres undefined) | 42.1 |
| COc1ccc(C2Nc3ccccc3C3=NCCCN32)cc1OC (centres undefined) | 7.54 |
| CC(=O)N1CCC(Cc2cnc(-c3c(C)n[nH]c3C)cn2)C1 (centres undefined) | -13.1 |
| Cc1ccc(Nc2nccc(C3CCCN(CC(=O)N(C)C)C3)n2)nc1 (centres undefined) | -16.1 |
| NCCn1nc(C2CCN(C(=O)CC3CCCCC3)C2)c2nccnc21 (centres undefined) | -7.33 |
| CC1CCCN(CC(=O)N2CCC(c3ncc4c(n3)CCNC4)CC2)C1 (centres undefined) | 1.79 |
| CC(C)(C)C(=O)N1CCC(c2nc(O)cc(-c3ccccn3)n2)CC1 | 16 |
| CC(C)(C)c1n[nH]cc1CN1CCc2nc3ccsc3c(=O)n2CC1 | 12.1 |
| O=c1c2ccccc2nc2n1CCN(Cc1cccs1)CC2 | -16.1 |
| Cc1ccc(-c2cc(N)c(=O)n(CC(=O)NCC3CCCCC3)n2)s1 | -16.2 |
| O=C(c1ccncc1)N1CCC(O)(Cn2ccc3ccncc32)CC1 | -13.3 |
| O=C(NCCO)C1(Cc2cc(-c3ccc(F)cc3F)no2)CCOCC1 | -12.3 |
| CC(C)C(=O)N(C)Cc1nc(N2CCCC2)ncc1-c1ccncc1 | -6.45 |
| CC(C)(C)Nc1c(C2CCCN(C(=O)C3CC3)C2)nc2ccccn12 (centres undefined) | 17 |

| Structure (SMILES) | cytotoxicity at 70.5 h [%] |
| --- | --- |
| Cc1ccc(C2(CN3CCN(Cc4cn(C)nc4C)CC3)CC2)cc1 | -11.3 |
| Cn1cc(CN2CCN(CC3(c4ccccc4)CC3)CC2)cn1 | -11.2 |
| CN1CCCC1c1cc2cccnc2n1Cc1ccc(F)cc1 (centres undefined) | -5.23 |
| O[C@@H]1CN(Cc2cccc(F)c2)CC[C@H]1NCc1ccccn1 | 12.7 |
| CCc1nc(-c2cncnc2C2CCCNC2)no1 (centres undefined) | -1.26 |
| FC(F)CNc1cnc(C2CCCN2)cn1 (centres undefined) | 3.12 |
| COc1cccc(Nc2nc(C3CCNCC3)c3sc(C)c(C)n23)c1 | -7.32 |
| Cc1sc2c(C3CCCNC3)nc(Nc3cccc(F)c3)n2c1C (centres undefined) | -5.08 |
| COc1cccc(Nc2nc(C3CCCNC3)c3ccccn23)c1 (centres undefined) | -7.29 |
| Cc1sc2c(C3CCNCC3)nc(Nc3cccc(F)c3)n2c1C | 15.7 |
| COc1cccc(-c2noc(C3CCN(Cc4ccccc4F)C3)n2)c1 (centres undefined) | 38.2 |
| COc1cccc(-c2noc(C3CCN(Cc4ccc(C)cc4)C3)n2)c1 (centres undefined) | 23.2 |
| COc1cccc(-c2noc(C3CCN(Cc4ccccc4C)C3)n2)c1 (centres undefined) | 13.9 |
| Clc1ccccc1CN1CCc2nc(C3CCCCN3)ncc2C1 (centres undefined) | -18.6 |
| CCC(CN1CCCCC1)NC(=O)C1(c2ccc(F)cc2)CC1 (centres undefined) | -7.64 |
| Cc1ccc(CN(CCCN(C)C)Cc2cnc(N(C)C)nc2)o1 | 6.47 |
| Cc1ccc(CN(CCCN2CCOCC2)Cc2cnn(C)c2)o1 | 0.657 |
| COc1ccc(CN(Cc2cccnc2)CC2CCCO2)c(OC)c1 (centres undefined) | -5.79 |
| Cc1noc(C)c1-c1cccc(C2CN(CC(=O)N(C)C)CCO2)n1 (centres undefined) | -4.85 |
| Cc1cccc(Nc2cc(C3CCCN(CC(N)=O)C3)ccn2)n1 (centres undefined) | 22.5 |
| COc1ccc(OCCc2cc(C3CCN(CC(C)C)C3)n[nH]2)cc1 (centres undefined) | -2.33 |
